The values that follow come from the supplement of paper PMC7801607.

Assay [1] has as its system Plasmodium falciparum NF54 asexual blood stage.
Assay [2] has as its system Plasmodium falciparum Dd2 asexual blood stage.
In assay [3] the test system is Plasmodium berghei ANKA liver stage in HepG2-A16-CD81.
The subject of another assay is HepG2-A16-CD81. Description: CC50; higher = less toxic. The protocol: (§1)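 Dose-response IC50s: P. falciparum NF54 asexual (pLDH, 72 h; 6 means >6 µM), Dd2 asexual (SYBR Green I, 72 h, 1536-well; 5 means >5 µM), NF54 stage IV/V gametocytes (luciferase 48 h, ATP 24 h, PrestoBlue 48 h), P. berghei liver stage in HepG2-A16-CD81 (luciferase, 48 h; 5 means >5 µM), HepG2 CC50 (CellTiter-Glo; 5 means >5 µM).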

For assay [4], the system named is Plasmodium falciparum NF54 stage IV/V gametocytes. The protocol: as §1
Assay [5] shares this test system. The method, then:
as §1
The source holds these as a separate data set.

With `CC(C)/N=c1\cc2n(-c3ccc(Cl)cc3)c3ccccc3nc-2cc1Nc1ccc(Cl)cc1`, the IC50 is 0.878 µM in assay [1], 2.85 µM in assay [2] and more than 5 µM in assay [3]. For the same molecule, in the assay with HepG2-A16-CD81, the CC50 is more than 5 µM.
`O=c1cc(NCCCN[C@@H]2CCOc3c(Br)cc(Br)cc32)[nH]c2ccsc12`: the IC50 in assay [2] was found to be 1.61 µM; in assay [3] it was 1.73 µM. In addition, the CC50 with HepG2-A16-CD81 was more than 5 µM.
Consider `CC(C)(C)c1ccc(Oc2ccc(N)cc2)cc1`, for which, in assay [2], the IC50 was more than 5 µM. In assay [4], the “IC50 (luciferase reporter)” value is 1.08 µM.
With `CCN(CC)CCCC(C)Nc1ccnc2cc(Cl)ccc12` (stereo not given), the IC50 is 0.0301 µM in assay [1], 0.0507 µM in assay [2] and more than 5 µM in assay [3]. This molecule also gave a CC50 in the assay with HepG2-A16-CD81 of more than 5 µM.
As to `CN1CCN(c2ccc3[nH]c(-c4ccc5[nH]c(-c6ccc(O)cc6)nc5c4)nc3c2)CC1`, the IC50 in assay [1] is 0.149 µM; in assay [2] it was 0.022 µM; in assay [3] it was more than 5 µM. For the same molecule, the CC50 in the assay with HepG2-A16-CD81 is more than 5 µM.
`CC[C@@]1(O)C(=O)OCc2c1cc1n(c2=O)Cc2cc3c([N+](=O)[O-])cccc3nc2-1`: the IC50 in assay [2] was 4.44 µM; in assay [3], 3.57 µM. This molecule displayed a CC50 in the assay on HepG2-A16-CD81 of more than 5 µM.
Consider `CN(C)CCCNC(=O)c1ccc(-c2cc(O)c3ncccc3c2)cc1`, for which the values for the half-maximal inhibitory concentration (IC50) in assay [1] and in assay [2] were more than 6 µM and more than 5 µM, respectively. Besides, the “IC50 (ATP bioluminescence)” value in assay [5] is 0.62 µM.
As for `C(=C\c1nc2ccccc2[nH]1)/c1ccc2c(c1)OCO2`, the IC50 in assay [2] is more than 5 µM. For the same molecule, the “IC50 (luciferase reporter)” value in assay [4] came to 3.92 µM.
For `CCc1nc(N)nc(N)c1C#CC(C)c1cc(OC)cc(-c2ccncc2)c1` (stereo not given), the results for the IC50 in assay [1], in assay [2] and in assay [3] were 0.0017 µM, 1.74 µM and 0.00422 µM, respectively. The molecule further gave a cytotoxic concentration (CC50) with HepG2-A16-CD81 of more than 5 µM.
The corresponding values for `Cc1[nH]c2ccccc2c1CCNCc1ccc(/C=C/C(=O)NO)cc1` are 0.0585 µM, 0.007 µM, 0.0561 µM and 0.141 µM.
As for `CC(C)Oc1ccc(-c2nc(-c3cccc4c3CC[C@@H]4NCCO)no2)cc1C#N`, the concentration for half-maximal inhibition (IC50) in assay [1] is more than 6 µM; in assay [2] it was 3.66 µM. Also, the “IC50 (ATP bioluminescence)” value in assay [5] stood at 2.13 µM.
On to `COC1CC2CCC(C)C(O)(O2)C(=O)C(=O)N2CCCCC2C(=O)OC(C(C)CC2CCC(OCCO)C(OC)C2)CC(=O)C(C)/C=C(\C)C(O)C(OC)C(=O)C(C)CC(C)/C=C/C=C/C=C/1C` (stereo not given), for which the values for the IC50 in assay [2] and in assay [3] were 2.06 µM and more than 5 µM, respectively. The CC50 in the assay with HepG2-A16-CD81 is more than 5 µM.
For `COc1cc(NCc2ccc3nc(N)nc(N)c3c2C)cc(OC)c1OC`, the IC50 came out at 0.108 µM in assay [2] and 0.000527 µM in assay [3]. Also, in the assay on HepG2-A16-CD81, the 50% cytotoxic concentration (CC50) was determined as 1.66 µM.
Turning to `Nc1c(C(=O)NCc2ccco2)c2nc3ccccc3nc2n1CCN1CCCCC1`, the values for the IC50 in assay [1] and in assay [2] were more than 6 µM and more than 5 µM, respectively. In addition, the “IC50 (ATP bioluminescence)” value in assay [5] came out at 3.16 µM.
For the molecule `O=C(Nc1ccc(F)cc1)c1nn(-c2ccccc2)c(=O)cc1Cl`, the IC50 in assay [2] was more than 5 µM. Further, the “IC50 (luciferase reporter)” value in assay [4] turned out to be 30.6 µM.
As to `CN1CCN(Cc2ccc(-c3cnc4[nH]cc(-c5ccc6[nH]ccc6c5)c4c3)cc2)CC1`, the IC50 is 1.39 µM in assay [1], 1.9 µM in assay [2] and 2.51 µM in assay [3]. Further, the “IC50 (ATP bioluminescence)” value in assay [5] was 1.66 µM. For the same molecule, the 50% cytotoxic concentration (CC50) with HepG2-A16-CD81 was more than 5 µM.
For the molecule `COc1nc2ccc(Br)cc2cc1[C@@H](c1ccccc1)[C@@](O)(CCN(C)C)c1cccc2ccccc12`, the values for the IC50 in assay [1], in assay [2] and in assay [3] were more than 6 µM, 2.05 µM and more than 5 µM, respectively. Further, in the assay with HepG2-A16-CD81, the CC50 is more than 5 µM.
For the molecule `NC(=S)N/N=C/c1ncccc1N`, the values for the IC50 in assay [1], in assay [2] and in assay [3] were 1.64 µM, 1.28 µM and 0.641 µM, respectively. The CC50 with HepG2-A16-CD81 is more than 5 µM.
Take `Fc1ccc2c(/C=C/c3cccnc3)c[nH]c2c1`: the IC50 in assay [2] was 1.01 µM; in assay [3] it was more than 5 µM. Besides, the CC50 with HepG2-A16-CD81 was more than 5 µM.
In the case of `CCOc1ccc(C(=O)NCCc2ccccc2)cc1`, in assay [2], the IC50 is more than 5 µM. Also, the “IC50 (luciferase reporter)” value in assay [4] came to 11.4 µM.
